Patent US10759803B2, “Asparagine endopeptidase (AEP) inhibitors for managing cancer and compositions related thereto” (priority 2014, dated 2020)

Columns and labels:
CYP2D6 = CYP2D6 (Homo sapiens, UniProt P10635); assay: CYP inhibition screening, CYP2D6; assay type: in vitro ADME
CYP2C9 = CYP2C9 (Homo sapiens, UniProt P11712); assay: CYP inhibition screening, CYP2C9; assay type: in vitro ADME
[1] = Mouse liver microsomal stability screen; settings: Mouse liver microsomes
CYP2C19 = CYP2C19 (Homo sapiens, UniProt P33261); assay: CYP inhibition screening, CYP2C19; assay type: in vitro ADME
AEP = biological target: T1, AEP (Homo sapiens, UniProt Q99538); assay: Inhibition kinetics assays (steady-state, Z-AAN-AMC); assay type: biochemical
T1 construct: tested with purified active AEP, IC50 values for the top 8 candidates were found
T1 sequence (Q99538 18-323 limits assumed): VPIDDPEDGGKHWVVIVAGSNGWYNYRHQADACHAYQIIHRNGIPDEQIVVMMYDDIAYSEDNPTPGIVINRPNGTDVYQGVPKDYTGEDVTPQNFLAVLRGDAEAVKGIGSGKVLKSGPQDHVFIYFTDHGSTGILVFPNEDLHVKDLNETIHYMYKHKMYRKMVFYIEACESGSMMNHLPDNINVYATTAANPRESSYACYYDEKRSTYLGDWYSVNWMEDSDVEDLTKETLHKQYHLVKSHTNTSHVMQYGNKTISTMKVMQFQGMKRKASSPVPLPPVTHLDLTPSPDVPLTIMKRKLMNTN
Procedure: KI values for each inhibitor were determined by global fits to the competitive inhibition equation. C. Time course inactivation assays were used to generate progress curves, depicting product formation as a function of time. […] E. Time course inactivation assays were used to generate progress curves, depicting product formation as a function of time. Pseudo first-order rate constants were obtained at each concentration of compound BB1. F. Re-plot of the pseudo first-order rate constants, kobs, vs. the concentration of compound BB1.
A. Michaelis-Menten plots displaying competitive inhibition of AEP. The inhibition constant, K1, was determined from the globally fit data. B. Double reciprocal Lineweaver-Burk plots also displaying competitive inhibition. C. […] DC. A plot of the corrected kobs values obtained from each curve in (B) versus the concentration of compound 38, which enabled the calculation of the second-order rate constant, kinact/KI to be determined to measure the potency of the inhibitor.
To determine the inhibition constants and the mechanism by which compound 38 inhibits AEP, the steady-state kinetic parameters for the hydrolysis of the peptide substrate, Z-AAN-AMC, were determined in the absence or presence of increasing concentrations of inhibitor. In these assays, specified concentrations of the inhibitor were pre-incubated with substrate for 10 min at 37° C., then 50 nM AEP was added to initiate the reaction, which was quenched after 10 min. […]
In the equations, Kii is the intercept Ki, and Kis is the slope Ki. The mode of the inhibition induced by the compounds on AEP was determined by the best fit of the data to equations 1-4. […]

CYP1A2 = biological target: T2, CYP1A2 (Homo sapiens, UniProt P05177); assay: CYP inhibition screening, CYP1A2; assay type: in vitro ADME
T2 sequence (P05177 1-516): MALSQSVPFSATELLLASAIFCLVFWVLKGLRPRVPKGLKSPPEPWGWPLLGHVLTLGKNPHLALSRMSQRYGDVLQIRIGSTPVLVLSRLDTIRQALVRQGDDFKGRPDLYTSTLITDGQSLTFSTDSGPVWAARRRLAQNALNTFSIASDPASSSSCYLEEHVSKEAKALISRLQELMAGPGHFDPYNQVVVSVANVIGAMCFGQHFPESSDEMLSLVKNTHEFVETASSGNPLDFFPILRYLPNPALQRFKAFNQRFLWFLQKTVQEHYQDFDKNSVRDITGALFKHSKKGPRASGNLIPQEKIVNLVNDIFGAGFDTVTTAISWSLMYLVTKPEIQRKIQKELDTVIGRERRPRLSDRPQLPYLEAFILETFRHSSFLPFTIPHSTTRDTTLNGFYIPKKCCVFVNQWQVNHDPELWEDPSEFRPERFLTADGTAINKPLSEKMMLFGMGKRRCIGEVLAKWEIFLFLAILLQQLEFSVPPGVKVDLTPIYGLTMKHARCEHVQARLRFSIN

CYP3A = assay: CYP inhibition screening, CYP3A-Testosterone; assay type: in vitro ADME
[2] = BBB-PAMPA permeability assay; assay type: in vitro ADME
[3] = Human liver microsomal stability screen; settings: Human liver microsomes; for Mean Remaining Parent (with NADPH): 30 min

CYP2C19, sequence (P33261 whole entry): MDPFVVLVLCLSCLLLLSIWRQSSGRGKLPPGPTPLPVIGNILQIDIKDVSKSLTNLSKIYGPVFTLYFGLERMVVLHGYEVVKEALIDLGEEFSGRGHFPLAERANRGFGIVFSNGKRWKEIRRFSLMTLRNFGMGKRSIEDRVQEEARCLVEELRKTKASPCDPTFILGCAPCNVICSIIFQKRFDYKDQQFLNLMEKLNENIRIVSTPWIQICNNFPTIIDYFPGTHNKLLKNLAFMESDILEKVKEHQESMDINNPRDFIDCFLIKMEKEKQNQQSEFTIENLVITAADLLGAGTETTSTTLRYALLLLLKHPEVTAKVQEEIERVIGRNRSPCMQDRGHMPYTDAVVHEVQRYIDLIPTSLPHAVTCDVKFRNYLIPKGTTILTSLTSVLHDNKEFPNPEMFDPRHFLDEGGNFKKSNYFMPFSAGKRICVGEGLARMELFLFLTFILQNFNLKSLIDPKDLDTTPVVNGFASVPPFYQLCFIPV
CYP2D6, sequence (P10635 whole entry): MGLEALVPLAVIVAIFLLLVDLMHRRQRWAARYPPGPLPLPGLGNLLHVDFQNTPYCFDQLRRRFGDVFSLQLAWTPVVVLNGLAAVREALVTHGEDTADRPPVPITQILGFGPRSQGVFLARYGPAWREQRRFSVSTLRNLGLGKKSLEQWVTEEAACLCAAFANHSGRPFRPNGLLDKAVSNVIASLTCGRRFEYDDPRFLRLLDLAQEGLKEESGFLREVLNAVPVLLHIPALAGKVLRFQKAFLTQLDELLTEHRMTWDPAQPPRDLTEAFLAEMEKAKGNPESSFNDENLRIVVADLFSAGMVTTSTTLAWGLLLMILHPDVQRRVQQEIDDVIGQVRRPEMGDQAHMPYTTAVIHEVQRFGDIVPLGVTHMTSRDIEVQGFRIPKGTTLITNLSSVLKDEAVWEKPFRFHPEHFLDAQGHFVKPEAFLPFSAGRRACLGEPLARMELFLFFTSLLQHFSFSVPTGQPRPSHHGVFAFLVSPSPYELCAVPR
CYP2C9, sequence (P11712 whole entry): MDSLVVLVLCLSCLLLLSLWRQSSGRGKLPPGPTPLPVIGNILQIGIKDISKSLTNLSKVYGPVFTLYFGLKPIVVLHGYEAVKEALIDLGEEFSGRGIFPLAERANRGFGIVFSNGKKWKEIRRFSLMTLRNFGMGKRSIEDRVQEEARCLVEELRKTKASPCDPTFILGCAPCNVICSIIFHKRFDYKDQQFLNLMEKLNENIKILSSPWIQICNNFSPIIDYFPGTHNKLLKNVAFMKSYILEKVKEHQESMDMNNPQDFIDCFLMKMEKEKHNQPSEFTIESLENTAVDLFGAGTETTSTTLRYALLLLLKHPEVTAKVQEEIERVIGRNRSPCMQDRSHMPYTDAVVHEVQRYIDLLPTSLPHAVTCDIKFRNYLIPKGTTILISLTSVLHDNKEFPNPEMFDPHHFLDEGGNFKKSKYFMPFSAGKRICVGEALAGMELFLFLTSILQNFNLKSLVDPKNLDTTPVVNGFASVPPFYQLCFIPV

Row | SMILES | CYP2D6 inhibition (CYP2D6; 3 μM) | CYP2D6 inhibition (CYP2D6; 10 μM) | CYP2C9 inhibition (CYP2C9; 3 μM) | CYP2C9 inhibition (CYP2C9; 10 μM) | Mean Remaining Parent (NADPH-free) [1] | Mean Remaining Parent (with NADPH) [1] | CYP2C19 inhibition (CYP2C19; 3 μM) | CYP2C19 inhibition (CYP2C19; 10 μM) | Ki (AEP; substrate Z-AAN-AMC, global fit, read-out: KI (competitive inhibition)) | CYP1A2 inhibition (CYP1A2; 3 μM) | CYP1A2 inhibition (CYP1A2; 10 μM) | CYP3A-Testosterone inhibition (CYP3A; 3 μM) | CYP3A-Testosterone inhibition (CYP3A; 10 μM) | Pe [2] | Mean Remaining Parent (NADPH-free) [3] | Mean Remaining Parent (with NADPH) [3] | inhibition constants in words (AEP; competitive inhibition) | blood-brain barrier crossing in words [2]
1 | Cn1c(=O)[nH]c(=O)c2c1nc(S)n2CC(O)COc1ccc(Cl)cc1 (stereo not drawn) [Compound 38] | −5.4% | 0.9% | 15.6% | 17.1% | 99% | 98% | −12.0% | 9.5% | 105 ± 37 nM | −7.6% | 10.5% | −6.0% | 2.4% | 0.007 10^−6 cm · s^−1 | 107% | 88% |  | 
2 | Nc1ccc(N2CCOCC2)c2nonc12 [Compound 11] | 7.8% | 21.9% | 4.3% | 5.6% | 103% | 20% | 4.4% | 6.8% |  | 13.1% | 37.0% | 4.1% | 21.6% | >25 10^−6 cm · s^−1 | 93% | 76% | nanomolar-range | able to cross the blood-brain barrier
